{"source": "patent US20110306663A1", "about": "(Baylor Research Institute, priority 2010, published 2011)", "key": {"[1]": {"system": "patient with adult-onset acid maltase deficiency (Pompe disease)", "details": "one patient; cited from earlier work"}, "[2]": {"system": "patients with APBD and GBE1 deficiency", "test": "Adverse event assessment, open-label triheptanoin study", "type": "in vivo, human", "details": "5 patients; for Adverse events (AE): mean 8.2 months of treatment", "protocol": "(§1) Ages ranged from 51-66 years and all were Ashkenazi Jewish. Three patients were able to walk independently, one walked with the help of a walker and a 5th patient was wheelchair bound.\n(§2) In the event of an organic acid abnormality such as an excessive urinary excretion of propionic and/or methylmalonic acid occur, biotin and/or vitamin B12 respectively were added to the regimen and normalization of the organic acid and acylcarnitine profile was verified. Should that not be sufficient the dose was reduced until normalization occurs. If still abnormal, patient was be excluded from the study.\nTwo adverse events not related to the triheptanoin were a broken ankle in one patient and wound treatment in another. […] Safety was also monitored throughout the study by urinary organic acids and blood acylcarnitine profile analyses. Changes in metabolic tests related the ingestion of triheptanoin were identified."}, "[3]": {"system": "patients with APBD and GBE1 deficiency", "test": "Urinary organic acids and blood acylcarnitine profile analyses", "type": "in vivo, human", "protocol": "as §2\nSafety was also monitored throughout the study by urinary organic acids and blood acylcarnitine profile analyses."}, "[4]": {"system": "patients with long chain fatty acid oxidation defects", "details": "30% to 35% of total daily caloric intake; cited from earlier work"}, "[5]": {"system": "patients with APBD and GBE1 deficiency", "test": "Motion capture gait analysis, open-label triheptanoin study", "type": "in vivo, human", "protocol": "as §1\n(§3) Baseline evaluation based on the criteria described in Table I, herein below was performed every 3 months.\n(§4) The outcome measures included: (i) the 6 minutes walk test and (ii) motion capture gait analysis and (iii) SF-36 Health Survey Questionnaire. […] Maximal improvement seemed to occur within the first 6 months of treatment (FIG. 2). […] Physical Function score increased in 4/5 patients on the SF-36 health survey questionnaire."}, "[6]": {"system": "patient with pyruvate carboxylase deficiency", "details": "one patient; cited from earlier work"}, "[7]": {"system": "patients with APBD and GBE1 deficiency", "test": "SF-36 Health Survey Questionnaire, open-label triheptanoin study", "type": "in vivo, human", "protocol": "as §1, §3, §4"}, "[8]": {"system": "patients with APBD and GBE1 deficiency", "test": "6 minutes walk test, open-label triheptanoin study", "type": "in vivo, human", "protocol": "as §1, §3, §4"}, "[9]": {"details": "5 patients, within 6 months of treatment"}}, "note": "Values joined by “and” are separate entries in the source; they are usually repeats but may differ in a detail not shown here. Equal entries are not always repeated."}
{"compound": "CCCCCCC(=O)OCC(COC(=O)CCCCCC)OC(=O)CCCCCC", "note": "[triheptanoin, glyceryl triheptanoate]", "values": [{"measurement": "Clinical response", "setting": "[1]", "value": "markedly improved"}, {"measurement": "AE remotely linked to triheptanoin", "setting": "[2]", "value": "rectal pain reported by one patient"}, {"measurement": "Serious AE", "setting": "[2]", "value": "no serious AE related to triheptanoin oil"}, {"measurement": "Adverse events (AE)", "setting": "[2]", "value": "No adverse events (AE) were reported"}, {"measurement": "Adverse events (AE)", "setting": "[2]; listed as triheptanoin oil", "value": "No significant adverse events occurred"}, {"measurement": "Catabolism of triheptanoin", "setting": "[3]; conclusion from urine and plasma findings", "value": "catabolized completely without accumulation of secondary metabolites"}, {"measurement": "Mitochondrial overload from triheptanoin-derived metabolites", "setting": "[3]; urinary organic acids", "value": "no evidence of mitochondrial overload"}, {"measurement": "Urinary excretion of derivatives of heptanoate oxidation (pimelate, 3-hydroxypentanoate, 3-ketopentanoate, 3-hydroxypropionate, methylcitrate)", "setting": "[3]; urine", "value": "detected"}, {"measurement": "Clinical outcome of diet treatment", "setting": "[4]", "value": "decreased episodes of rhabdomyolysis, improvement in pain and cardiac function"}, {"measurement": "Propionyl overload", "setting": "[4]", "value": "No propionyl overload occurred"}, {"measurement": "Gait analysis: cadence, support time, stride length, step length and walking speed", "setting": "[5]; 3 patients who were able to walk unaided", "value": "improvement"}, {"measurement": "Gait analysis", "setting": "[5]; [9]", "value": "stability or slight improvement"}, {"measurement": "Glutamine and GABA in the CSF", "setting": "[6]", "value": "normalization"}, {"measurement": "Patients with increased Physical Function score on the SF-36", "setting": "[7]; 5 patients", "value": "4/5"}, {"measurement": "SF-36 Health Survey Questionnaire scores", "setting": "[7]; FIG. 3", "value": "tended to improve in parallel with motor score"}, {"measurement": "Six minute walk test distance on treatment", "setting": "[8]; 5 patients, mean ± SD after treatment (from 1246±642), p=0.06", "value": "1376±692", "unit": "feet"}, {"measurement": "Six minute walk test mean increase", "setting": "[8]; 5 patients, triheptanoin oil 1-2 g/fg/24 hours in 4 divided doses, 1246±642 at start, p=0.06", "value": 130, "unit": "feet"}, {"measurement": "Distance walked during 6 minutes (6 minutes walk test)", "setting": "[8]; [9]", "value": "significant improvement"}, {"measurement": "Time of maximal improvement in 6-minute walk test", "setting": "[8]; FIG. 2", "value": "≤ 6", "unit": "months"}, {"measurement": "6-minute walk test mean improvement", "setting": "[8]; mean follow up of 8.5 months, n=5, p=0.06", "value": 10, "unit": "%"}, {"measurement": "6-minute walk test improvement, one patient", "setting": "[8]; one patient, 25 months time point", "value": "126 feet and 9.5%"}, {"measurement": "Motor performance and quality of life", "setting": "[8]; open-label study, 5 patients", "value": "evidence of improved motor performance as well as quality of life"}]}
